# Measurements as given in patent US9045563B2, “CXC chemokine receptor 4 (CXCR4) antagonistic polypeptide” (priority 2007, dated 2015).
# Ends that are not written are not given here.
# Biological target: T1, CCR5 (Homo sapiens, UniProt P51681)
# T1 construct: expressed in transfected cells; host or cells: HEK293
# Test: Ca2+ mobilization in HEK CCR5 cells (indo-1)
# Assay type: cell-based
# Conditions: 50 μM peptide
# Experimental: Ca^2+ responses were recorded.
# FIG. 17. CXCR4 antagonistic activities of ALB derivatives. […] CXCR4 or CCR5 expressing HEK293 cells were treated with CXCR4 agonist CXCL12 (10 nM) or CCR5 agonist CCL5 (20 nM), respectively, in the absence (no ALB) or presence of indicated ALB derivatives (50 μM). Calcium responses were recorded as described. Data shown are mean values±standard deviation derived from duplicates relative to peak calcium responses after treatment with agonists only (100%). […] CXCR4 expressing HEK293 cells were treated with Texas Red labeled CXCL12 (CXCL12-Tr) in the presence or absence of ALB peptides. Real-time fluorescence monitoring of ligand-receptor interactions was carried out as described. Shown are bound CXCL12-Tr levels in the presence of ALB peptides relative to CXCL12-Tr only treated cells (100% bound). Values were derived from a duplicate experiment.
# T1 sequence (P51681 whole entry): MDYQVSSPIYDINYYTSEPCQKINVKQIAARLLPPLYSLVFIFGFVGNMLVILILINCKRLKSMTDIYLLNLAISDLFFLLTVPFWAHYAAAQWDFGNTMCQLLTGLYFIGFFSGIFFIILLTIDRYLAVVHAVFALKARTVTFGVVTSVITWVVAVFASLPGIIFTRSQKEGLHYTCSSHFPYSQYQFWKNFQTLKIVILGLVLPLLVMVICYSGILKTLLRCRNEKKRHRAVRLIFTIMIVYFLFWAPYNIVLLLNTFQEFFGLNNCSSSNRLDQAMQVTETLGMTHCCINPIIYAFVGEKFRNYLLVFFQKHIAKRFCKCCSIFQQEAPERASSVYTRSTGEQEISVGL
sequence,measurement,setting,value
"LVRYTKKVPQVSTPTL [ALB408-423, LVRYTKKVPQVSTPTL]",effect on CCL5-evoked calcium responses,HEK CCR5 cells,no effect
same,"agonism: calcium response induced by the peptide alone, CCR5",no chemokine,does not induce any calcium response
